Measured values: patent US8658661B2, “Oxadiazole inhibitors of leukotriene production” (Boehringer Ingelheim International GmbH, priority 2010, dated 2014)

How the values were obtained:
[1] = target: T1, recombinant human FLAP protein (Homo sapiens, UniProt P20292); assay: FLAP binding assay (SPA, displacement of [125I]L-691,831); details: membranes of sf9 cells expressing recombinant human FLAP; [125I]L-691,831 probe; read-out: FLAP binding IC50
T1 construct: made in house; host or cells: Sf9 insect cells (100,000×g membrane pellet used)
T1 sequence (P20292 1-161): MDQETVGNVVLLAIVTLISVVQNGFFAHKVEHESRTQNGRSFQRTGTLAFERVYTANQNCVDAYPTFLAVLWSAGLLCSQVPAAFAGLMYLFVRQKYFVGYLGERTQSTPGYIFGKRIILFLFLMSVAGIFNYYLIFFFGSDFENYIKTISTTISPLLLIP
Outline: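 Membranes from sf9 cells expressing human FLAP in pH 7.5 Tris buffer (MgCl2, EDTA, PMSF). Non-specific binding defined with 10 μM cold L-691,831.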

[2] = system: synthesis of LTB4 in human whole blood; assay: Human whole blood assay (inhibition of LTB4 synthesis, calcimycin stimulated); type: cell-based; details: heparinized human whole blood, calcimycin 20 μM, plasma LTB4
Outline: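 Readout: plasma LTB4 by antibody-based HTRF. Compound added to heparinized human whole blood, 15 min 37° C; calcimycin 20 μM final (PBS pH 7.4), 30 min 37° C; spun 1500×g 5 min, plasma taken.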

| SMILES | IC50 [1] [nM] | IC50 [2] [nM] |
| --- | --- | --- |
| COCCn1cc(-c2nc([C@@](C)(c3ccc(-c4ccc(N)nc4)cc3)C3CC3)no2)cn1 [Example 183, 5-[4-((R)-1-Cyclopropyl-1-{5-[1-(2-methoxy-ethyl)-1H-pyrazol-4-yl]-[1,2,4]oxadiazol-3-yl}-ethyl)-phenyl]-pyridin-2-ylamine] | 5.5 | 39 |
| CC(C)C(C)(c1ccc(-c2cnc(N)nc2)cc1)c1noc(C2(C)CCCCC2)n1 (stereo not drawn) [Example 120, 5-(4-{3-methyl-2-[5-(1-methylcyclohexyl)-1,2,4-oxadiazol-3-yl]butan-2-yl}phenyl)pyrimidin-2-amine] | 40 | 2100 |
| CC(C)C(C)(c1ccc(-c2cnc(N)nc2)cc1)c1noc(-c2ccc[nH]c2=O)n1 (stereo not drawn) [Example 12, 3-(3-{2-[4-(2-aminopyrimidin-5-yl)phenyl]-3-methylbutan-2-yl}-1,2,4-oxadiazol-5-yl)pyridin-2(1H)-one] | 3.3 | 290 |
| CN(C)C(=O)Cn1cc(-c2nc([C@@](C)(c3ccc(-c4cnc(N)nc4)cc3)C3CCC3)no2)cn1 [Example 104, 2-[4-(3-{(1R)-1-[4-(2-aminopyrimidin-5-yl)phenyl]-1-cyclobutylethyl}-1,2,4-oxadiazol-5-yl)-1H-pyrazol-1-yl]-N,N-dimethylacetamide] | 6.1 | 130 |
| CC(C)(O)CNc1ccc(-c2nc(C(C)(c3ccc(-c4cnc(N)nc4)cc3)C3CC3)no2)cn1 (stereo not drawn) [Example 39, 1-{[5-(3-{1-[4-(2-aminopyrimidin-5-yl)phenyl]-1-cyclopropylethyl}-1,2,4-oxadiazol-5-yl)pyridin-2-yl]amino}-2-methylpropan-2-ol] | 2.1 | 110 |
| Cc1nc(N)ccc1-c1ccc(C(C)(c2noc(-c3cnn(CC(=O)N(C)C)c3)n2)C2CC2)cc1 (stereo not drawn) [Example 244, 2-[4-(3-{1-[4-(6-Amino-2-methyl-pyridin-3-yl)-phenyl]-1-cyclopropyl-ethyl}-[1,2,4]oxadiazol-5-yl)-pyrazol-1-yl]-N,N-dimethyl-acetamide] | 25 | 270 |
| CC(C)[C@](C)(c1ccc(-c2cnc(N)nc2)cc1)c1noc(-c2cnn(CC(C)(C)O)c2)n1 [Example 107, 1-[4-(3-{(2R)-2-[4-(2-aminopyrimidin-5-yl)phenyl]-3-methylbutan-2-yl}-1,2,4-oxadiazol-5-yl)-1H-pyrazol-1-yl]-2-methylpropan-2-ol] | 0.86 | 17 |
| Cc1nc(N)ncc1-c1ccc([C@@](C)(c2noc(-c3cnn(CC(=O)N(C)C)c3)n2)C2CC2)cc1 [Example 258, 2-[4-(3-{(S)-1-[4-(2-Amino-4-methyl-pyrimidin-5-yl)-phenyl]-1-cyclopropyl-ethyl}-[1,2,4]oxadiazol-5-yl)-pyrazol-1-yl]-N,N-dimethyl-acetamide] | 430 | 2300 |
| CC(C)C(C)(c1ccc(-c2cnc(N)nc2)cc1)c1noc(NCC2CCOCC2)n1 (stereo not drawn) [Example 201, 5-[4-(1,2-Dimethyl-1-{5-[(tetrahydro-pyran-4-ylmethyl)-amino]-[1,2,4]oxadiazol-3-yl}-propyl)-phenyl]-pyrimidin-2-ylamine] | 13 | 200 |
| CC(=O)N1CCN(c2nc(C(C)(c3ccc(-c4cnc(N)nc4)cc3)C(C)C)no2)CC1 (stereo not drawn) [Example 169, 1-[4-(3-{1-[4-(2-Amino-pyrimidin-5-yl)-phenyl]-1,2-dimethyl-propyl}-[1,2,4]oxadiazol-5-yl)-piperazin-1-yl]-ethanone] | 14 | 370 |
| CC(C)C(C)(c1ccc(-c2cnc(N)nc2)cc1)c1noc(N2CCC(CCO)CC2)n1 (stereo not drawn) [Example 212, 2-[1-(3-{1-[4-(2-Amino-pyrimidin-5-yl)-phenyl]-1,2-dimethyl-propyl}-[1,2,4]oxadiazol-5-yl)-piperidin-4-yl]-ethanol] | 12 | 86 |
| COCCn1cc(-c2nc([C@@](C)(c3ccc(-c4cnc(N)nc4)cc3)C(C)C)no2)cn1 [Example 63, 5-{4-[(2R)-2-{5-[1-(2-methoxyethyl)-1H-pyrazol-4-yl]-1,2,4-oxadiazol-3-yl}-3-methylbutan-2-yl]phenyl}pyrimidin-2-amine] | 1.1 | 14 |
| C[C@](c1ccc(-c2ccc(N)nc2)cc1)(c1noc(N2CCC(O)CC2)n1)C1CC1 [Example 283, 1-(3-{(S)-1-[4-(6-Amino-pyridin-3-yl)-phenyl]-1-cyclopropyl-ethyl}-[1,2,4]oxadiazol-5-yl)-piperidin-4-ol] | 16 | 920 |
| CC(C)C(C)(c1ccc(-c2cnc(N)nc2)cc1)c1noc(C2(C)CC2)n1 (stereo not drawn) [Example 118, 5-(4-{3-methyl-2-[5-(1-methylcyclopropyl)-1,2,4-oxadiazol-3-yl]butan-2-yl}phenyl)pyrimidin-2-amine] | 9.9 | 820 |
| CN(C)C(=O)Cn1cc(-c2nc([C@@](C)(c3ccc(-c4cnc(N)c(C#N)n4)cc3)C3CC3)no2)cn1 [Example 294, 2-[4-(3-{(R)-1-[4-(5-Amino-6-cyano-pyrazin-2-yl)-phenyl]-1-cyclopropyl-ethyl}-[1,2,4]oxadiazol-5-yl)-pyrazol-1-yl]-N,N-dimethyl-acetamide] | 7 | 200 |
| CC(C)C(C)(c1ccc(-c2cnc(N)nc2)cc1)c1noc(C(=O)N2CCOCC2)n1 (stereo not drawn) [Example 90, (3-{2-[4-(2-aminopyrimidin-5-yl)phenyl]-3-methylbutan-2-yl}-1,2,4-oxadiazol-5-yl)(morpholin-4-yl)methanone] | 63 | 1500 |
| CO[C@@H]1CCN(C(=O)Cn2cc(-c3nc([C@@](C)(c4ccc(-c5cnc(N)nc5)cc4)C4CC4)no3)cn2)C1 [Example 220, 2-[4-(3-{(R)-1-[4-(2-Amino-pyrimidin-5-yl)-phenyl]-1-cyclopropyl-ethyl}-[1,2,4]oxadiazol-5-yl)-pyrazol-1-yl]-1-((R)-3-methoxy-pyrrolidin-1-yl)-ethanone] | 8.5 | 210 |
| Cc1nc(N)ccc1-c1ccc([C@](C)(c2noc(-c3cnn(CC(=O)N(C)C)c3)n2)C2CC2)cc1 [Example 292, 2-[4-(3-{(R)-1-[4-(6-Amino-2-methyl-pyridin-3-yl)-phenyl]-1-cyclopropyl-ethyl}-[1,2,4]oxadiazol-5-yl)-pyrazol-1-yl]-N,N-dimethyl-acetamide] | 8.5 | 150 |
| CC1(O)CN(c2nc(C(C)(c3ccc(-c4cnc(N)nc4)cc3)C3CC3)no2)C1 (stereo not drawn) [Example 276, 1-(3-{1-[4-(2-Amino-pyrimidin-5-yl)-phenyl]-1-cyclopropyl-ethyl}-[1,2,4]oxadiazol-5-yl)-3-methyl-azetidin-3-ol] | 28 | 260 |
| CN(C)C(=O)Cn1cc(-c2nc([C@@](C)(c3ccc(-c4cnc(N)[nH]c4=O)cc3)C3CC3)no2)cn1 [Example 197, 2-[4-(3-{(R)-1-[4-(2-amino-6-oxo-1,6-dihydro-pyrimidin-5-yl)-phenyl]-1-cyclopropyl-ethyl}-[1,2,4]oxadiazol-5-yl)-pyrazol-1-yl]-N,N-dimethyl-acetamide] | 16 | > 5000 |
| CC(C)(O)CNc1cnc(-c2nc([C@](C)(c3ccc(-c4cnc(N)nc4)cc3)C3CC3)no2)cn1 [Example 51, 1-{[5-(3-{(1S)-1-[4-(2-aminopyrimidin-5-yl)phenyl]-1-cyclopropylethyl}-1,2,4-oxadiazol-5-yl)pyrazin-2-yl]amino}-2-methylpropan-2-ol] | 3.9 | 140 |
| CC(C)C(C)(c1ccc(-c2cnc(N)nc2)cc1)c1noc(N(C)CCN(C)C)n1 (stereo not drawn) [Example 260, N-(3-{1-[4-(2-Amino-pyrimidin-5-yl)-phenyl]-1,2-dimethyl-propyl}-[1,2,4]oxadiazol-5-yl)-N,N′,N′-trimethyl-ethane-1,2-diamine] | 94 | 900 |
| Cc1nc(-c2ccc([C@](C)(c3noc(-c4cnn(CC(C)(C)O)c4)n3)C3CC3)cc2)cnc1N [Example 180, 1-[4-(3-{(R)-1-[4-(5-Amino-6-methyl-pyrazin-2-yl)-phenyl]-1-cyclopropyl-ethyl}-[1,2,4]oxadiazol-5-yl)-pyrazol-1-yl]-2-methyl-propan-2-ol] | 2.9 | 29 |
| CN(C)C(=O)Cn1cc(-c2nc(C(C)(c3ccc(-c4cnc5c(c4)CCN5)cc3)C3CC3)no2)cn1 (stereo not drawn) [Example 241, 2-[4-(3-{1-Cyclopropyl-1-[4-(2,3-dihydro-1H-pyrrolo[2,3-b]pyridin-5-yl)-phenyl]-ethyl}-[1,2,4]oxadiazol-5-yl)-pyrazol-1-yl]-N,N-dimethyl-acetamide] | 3.4 | 170 |
| Cc1ccc(-c2nc(C(C)(C)c3ccc(-c4cnc(N)nc4)cc3)no2)cn1 [Example 37, 5-(4-{2-[5-(6-methylpyridin-3-yl)-1,2,4-oxadiazol-3-yl]propan-2-yl}phenyl)pyrimidin-2-amine] | 7.4 | 250 |
| CC(C)C(C)(c1ccc(-c2cnc(N)nc2)cc1)c1noc(N2CCN(C(=O)N(C)C)CC2)n1 (stereo not drawn) [Example 269, 4-(3-{1-[4-(2-Amino-pyrimidin-5-yl)-phenyl]-1,2-dimethyl-propyl}-[1,2,4]oxadiazol-5-yl)-piperazine-1-carboxylic acid dimethylamide] | 24 | 230 |
| COCCn1cc(-c2nc([C@@](C)(c3ccc(-c4cnc(N)c(C)c4)cc3)C3CC3)no2)cn1 [Example 188, 5-[4-((R)-1-Cyclopropyl-1-{5-[1-(2-methoxy-ethyl)-1H-pyrazol-4-yl]-[1,2,4]oxadiazol-3-yl}-ethyl)-phenyl]-3-methyl-pyridin-2-ylamine] | 48 | 51 |
